Experimental data as given in the supplement of paper PMC4862054.

Legend:
Test in all cases: drug sensitivity score (DSS), CellTox Green (DSS (AUC-based score)); higher = stronger drug effect (viability inhibition or cytotoxicity); extreme values may be limits of the assay
Details in all cases: incubation time: 72 h
[1] = system: CAL-51
Procedure, shortened: (§1)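 For 72 h, breast cancer cell lines seeded at 20 µl suspension per well in 384-well plates were incubated with compound at 5 concentrations in 10-fold steps spanning a 10,000-fold range that differed by compound. The first reading was CellTox Green fluorescence at 485/520 nm, and the second was CellTiter-Glo luminescence after 10 min at room temperature. Both were normalised per plate to 0.1 % DMSO and a positive kill control, and the drug sensitivity score was obtained from the area under the fitted dose-response curve.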

[2] = system: HCC1599
Procedure, shortened: as §1

[3] = system: HDQ-P1
Procedure, shortened: as §1

[4] = system: MCF-10A
Procedure, shortened: as §1

[5] = system: MDA-MB-436
Procedure, shortened: as §1

[6] = system: MDA-MB-468
Procedure, shortened: as §1

[7] = system: Hs578T
Procedure, shortened: as §1

Row | SMILES | drug sensitivity score [1] | drug sensitivity score [2] | drug sensitivity score [3] | drug sensitivity score [4] | drug sensitivity score [5] | drug sensitivity score [6] | drug sensitivity score [7]
1 | CC(C)(C)Cn1c(N)nc2ccc(-c3[nH]c(C(C)(C)C)nc3-c3ccc(F)cc3)nc21 | 0 | 0 | 0 | 0 | 2.7 | 0 | 
2 | Cn1cc(C[C@@H](N)C(=O)O)c2ccccc21 [1-methyl-D-tryptophan] | 0 | 0 | 1.12 | 0 | 0 | 1.22 | 3.13
3 | CC[C@H](CC#N)OC(=O)N[C@@H](C)c1cccc(NC(=O)Nc2ccc(-c3cnco3)c(OC)c2)c1 [AVN944] | 5.68 | 0 | 0 | 0 | 0 | 0 | 12.6
4 | Cc1c(N)nc([C@H](CC(N)=O)NC[C@H](N)C(N)=O)nc1C(=O)N[C@H](C(=O)N[C@H](C)[C@@H](O)[C@H](C)C(=O)N[C@H](C(=O)NCCc1nc(-c2nc(C(=O)NCCC[S+](C)C)cs2)cs1)[C@@H](C)O)[C@@H](OC1OC(CO)C(O)C(O)C1OC1OC(CO)C(O)C(OC(N)=O)C1O)c1cnc[nH]1 (some centres not stated) [Bleomycin] | 19.8 | 0 | 0 | 0 | 2.42 | 0 | 
5 | Cc1cc2c(F)c(Oc3ncnn4cc(OC[C@@H](C)O)c(C)c34)ccc2[nH]1 [Brivanib] | 0 | 0 | 0 | 0 | 2.68 | 0 | 0
6 | CCCCCOC(=O)Nc1nc(=O)n([C@@H]2O[C@H](C)[C@@H](O)[C@H]2O)cc1F [Capecitabine] | 0 | 0 | 0 | 0 | 0 | 0 | 
7 | CC(C)C[C@H](NC(=O)[C@H](CCc1ccccc1)NC(=O)CN1CCOCC1)C(=O)N[C@@H](Cc1ccccc1)C(=O)N[C@@H](CC(C)C)C(=O)[C@@]1(C)CO1 [Carfilzomib] | 24.4 | 0 | 19.1 | 9.99 | 19.2 | 37.2 | 16.7
8 | Nc1nc(Cl)nc2c1ncn2[C@@H]1O[C@H](CO)[C@@H](O)[C@@H]1F [Clofarabine] | 16.7 | 0 | 0 | 0 | 0 | 0.395 | 0
9 | CCN(CC)CCOc1ccc(C(=C(Cl)c2ccccc2)c2ccccc2)cc1 [Clomifene] | 0 | 1.4 |  | 3.53 | 0 | 0 | 7.35
10 | C[C@@H]1C[C@H]2[C@@H]3CCC4=CC(=O)C=C[C@]4(C)[C@@]3(F)[C@@H](O)C[C@]2(C)[C@@]1(O)C(=O)CO [Dexamethasone] | 0 | 0 | 0 | 3.19 | 0 | 0 | 1.94
11 | CCc1cnn2c(NCc3ccc[n+]([O-])c3)cc(N3CCCC[C@H]3CCO)nc12 [Dinaciclib] | 8.81 | 5.57 | 11.4 | 6.99 | 0 | 19.6 | 12.4
12 | Cc1c(C(=O)Nc2ccc(N3C[C@@H](C)O[C@@H](C)C3)nc2)cccc1-c1ccc(OC(F)(F)F)cc1 [Erismodegib] | 0 | 0 | 0 | 0 | 0 | 0 | 0
13 | CC(C)C(=O)Nc1ccc([N+](=O)[O-])c(C(F)(F)F)c1 [Flutamide] | 0 | 0 | 0 | 0 | 0 | 0 | 0
14 | COc1cc2c(Oc3ccc(NC(=O)C4(C(=O)Nc5ccc(F)cc5)CC4)cc3F)ccnc2cc1OCCCN1CCOCC1 [Foretinib] | 4.29 | 0 | 0 | 0 | 0 | 3.1 | 2.65
15 | COc1cc(Nc2ncc(F)c(Nc3ccc4c(n3)N(COP(=O)(O)O)C(=O)C(C)(C)O4)n2)cc(OC)c1OC [Fostamatinib] | 3.3 | 0 | 0 | 0 | 0 |  | 3.65
16 | CC(C)NC[C@@H](C(=O)N1CCN(c2ncnc3c2[C@H](C)C[C@H]3O)CC1)c1ccc(Cl)cc1 [GDC-0068] | 2.24 | 0 | 0.469 | 0 | 0 | 3.49 | 0
17 | CCCc1cc(C)[nH]c(=O)c1CNC(=O)c1cc(-c2ccnc(N3CCN(C)CC3)c2)cc2c1cnn2C(C)C [GSK343] | 0 | 1.18 | 0 | 0 | 0 | 0 | 4.43
18 | NC(=O)NO [Hydroxyurea] | 8.77 | 0 | 0 | 0 |  | 0 | 

Row | SMILES | drug sensitivity score [1] | drug sensitivity score [2] | drug sensitivity score [3] | drug sensitivity score [4] | drug sensitivity score [5] | drug sensitivity score [6] | drug sensitivity score [7]
19 | COc1cc2c(cc1-c1c(C)noc1C)ncc1[nH]c(=O)n([C@H](C)c3ccccn3)c12 [I-BET151] | 4.63 | 0 | 5.77 | 2.02 | 1.57 | 5.63 | 0
20 | CC(C)n1nc(-c2ccc3oc(N)nc3c2)c2c(N)ncnc21 [INK128] | 1.08 | 0 | 0 | 0 | 0 | 0 | 10.3
21 | O=NN(CCCl)C(=O)NC1CCCCC1 [Lomustine] | 0 | 0 | 0 | 0 | 0 | 0 | 0
22 | O=C(O)CC[C@H]1CC[C@@](c2cc(F)ccc2F)(S(=O)(=O)c2ccc(Cl)cc2)CC1 [MK-0752] | 0 | 0 | 0 | 0 | 0 | 0 | 0
23 | NC1(c2ccc(-c3nc4ccn5c(=O)[nH]nc5c4cc3-c3ccccc3)cc2)CCC1 [MK-2206] | 0 | 0 | 0 | 0 | 0 | 0 | 0
24 | NC(=O)c1cccc2cn(-c3ccc([C@@H]4CCCNC4)cc3)nc12 [MK-4827] | 3.35 | 0 | 0 | 0 | 0 | 0 | 0
25 | N[C@@H](Cc1ccc(N(CCCl)CCCl)cc1)C(=O)O [Melphalan] | 21.7 | 11.8 | 18.4 | 19.3 | 8.42 | 19.7 | 12.4
26 | O=C(c1cc(Cc2n[nH]c(=O)c3ccccc23)ccc1F)N1CCN(C(=O)C2CC2)CC1 [Olaparib] | 3.38 | 0 |  | 0 | 8.45 | 0 | 0
27 | CO[C@H](C(=O)[C@@H](O)[C@@H](C)O)[C@@H]1Cc2cc3cc(O[C@H]4C[C@@H](O[C@@H]5C[C@@H](O)[C@H](O)[C@@H](C)O5)[C@H](O)[C@@H](C)O4)c(C)c(O)c3c(O)c2C(=O)[C@H]1O[C@H]1C[C@@H](O[C@@H]2C[C@@H](O)[C@@H](O[C@@H]3C[C@](C)(O)[C@H](O)[C@@H](C)O3)[C@@H](C)O2)[C@H](O)[C@@H](C)O1 [Plicamycin] | 7.69 | 0 | 0 | 6.07 | 0 | 9.57 | 1.28
28 | C[C@]12C=CC(=O)C=C1CC[C@@H]1[C@@H]2C(=O)C[C@@]2(C)[C@H]1CC[C@]2(O)C(=O)CO [Prednisone] | 0 | 0 | 0 | 0 | 0 | 0 | 
29 | CO[C@H]1C[C@@H]2CC[C@@H](C)[C@@](O)(O2)C(=O)C(=O)N2CCCC[C@H]2C(=O)O[C@H]([C@H](C)C[C@@H]2CC[C@@H](O)[C@H](OC)C2)CC(=O)[C@H](C)/C=C(\C)[C@@H](O)[C@@H](OC)C(=O)[C@H](C)C[C@H](C)/C=C/C=C/C=C/1C [Sirolimus] | 0 | 0 | 0 | 0 | 0 | 0 | 0
30 | CN1CCN(c2nc(C3=C(c4c[nH]c5ccccc45)C(=O)NC3=O)c3ccccc3n2)CC1 [Sotrastaurin] | 0 | 0 | 0 | 0 | 0 | 0 | 0
31 | CC/C(=C(\c1ccccc1)c1ccc(OCCN(C)C)cc1)c1ccccc1 [Tamoxifen] | 0 | 0 | 0 | 0 | 1.29 | 3.42 | 0
32 | COc1cc2c(N3CCN(C(=O)Nc4ccc(OC(C)C)cc4)CC3)ncnc2cc1OCCCN1CCCCC1 [Tandutinib] | 0 | 0 | 0 | 0 | 0 | 0 | 0
33 | C[C@@H](C(=O)O)c1ccc(-c2ccccc2)c(F)c1 [Tarenflurbil] | 0 | 0 | 0 | 0.986 | 0 | 0 | 
34 | Cn1nnc2c(C(N)=O)ncn2c1=O [Temozolomide] | 0 | 0 | 0 | 0 | 0 | 0 | 0
35 | CN1CCc2c(c3ccccc3n2Cc2ccc(C(=O)NO)cc2)C1 [Tubastatin A] | 7.48 | 0 | 0 | 0 | 0 | 1.42 | 0
36 | CC[C@@H]1C(=O)N(C)c2cnc(Nc3ccc(C(=O)N[C@H]4CC[C@H](N5CCN(CC6CC6)CC5)CC4)cc3OC)nc2N1C(C)C [Volasertib] | 14.5 | 0 | 7.16 | 19.4 | 0 | 0 | 10.7
